In ChEMBL document CHEMBL4052680, “Semi-quantitative models for identifying potent and selective transthyretin amyloidogenesis inhibitors” (Bioorg Med Chem Lett, 2017):

What was measured:
[1] = species: Rattus norvegicus; test: Displacement of [125I]-triiodothyronine from thyroid hormone receptor in rat liver membrane homogenates assessed as relative T3 displacement incubated for 18 hrs by scintillation counting method relative to control; assay type: cell membranes
[2] = species: Rattus norvegicus; test: Displacement of [125I]-triiodothyronine from thyroid hormone receptor in rat liver membrane homogenates incubated for 18 hrs by scintillation counting method; assay type: cell membranes; parameters: concentration or dose not given beside the values; conditions: concentration not given here

Compound	relative binding affinity (RBA) [1]	inhibition [2]
Oc1c(Br)cc(CCc2cccc(F)c2)cc1Br	0.19	19%
O=[N+]([O-])c1ccccc1/C=C/c1cc(Br)c(O)c(Br)c1	0.21	21%
Cc1cc(/C=C/c2c(Cl)cccc2Cl)cc(C)c1O	0.41	41%
COc1cccc(OC)c1CCc1cc(Br)c(O)c(Br)c1	0	0%
O=[N+]([O-])c1ccccc1COc1cc(Br)cc(Br)c1	0	0%
Nc1cccc(/C=C/c2cc(Br)c(O)c(Br)c2)c1	0	0%
Cc1cc(CCc2c(Cl)cccc2Cl)cc(C)c1O	0.4	40%
Oc1ccc(/C=C/c2cc(Br)c(O)c(Br)c2)cc1	0.5	50%
Oc1c(Br)cc(NCc2ccccc2)cc1Br	0.02	2%
Nc1cccc(/C=C/c2cc(Br)c(N)c(Br)c2)c1	0.03	3%
COc1cccc(/C=C/c2cc(Br)c(N)c(Br)c2)c1	0.01	1%
Oc1c(Br)cc(-c2nc3cccc(Cl)c3o2)cc1Br	0.62	62%
COc1ccccc1NC(=O)Nc1cc(Br)c(O)c(Br)c1	0.14	14%
Nc1ccccc1/C=C/c1cc(Br)c(O)c(Br)c1	0.15	15%
Brc1cc(Br)cc(Oc2cccc3oc4ccccc4c23)c1	0	0%
Cc1cc(C)cc(-c2cccc3oc4ccccc4c23)c1	0.02	2%
Cc1ccccc1/C=C/c1cc(Br)c(O)c(Br)c1	0.44	44%
Oc1c(Br)cc(-c2cccc3oc4ccccc4c23)cc1Br	0.36	36%
Clc1cccc(Cl)c1COc1cc(Br)cc(Br)c1	0.04	4%
Oc1cc(O)cc(/C=C/c2cc(Br)c(O)c(Br)c2)c1	0.66	66%
COc1cccc(/C=C/c2cc(Br)c(O)c(Br)c2)c1	0	0%
Nc1cccc(CCc2cc(Br)c(O)c(Br)c2)c1	0	0%

Compound	relative binding affinity (RBA) [1]	inhibition [2]
Nc1ccc(CCc2cc(Br)c(O)c(Br)c2)cc1	0	0%
Cc1cc(C)cc(Oc2cccc3oc4ccccc4c23)c1	0	0%
Cc1cccc(C)c1/C=C/c1cc(Br)c(O)c(Br)c1	0.42	42%
Cc1cc(C)cc(/C=C/c2cc(Br)c(O)c(Br)c2)c1	0.2	20%
COc1ccccc1CCc1cc(Br)c(O)c(Br)c1	0	0%
Cc1cccc(CCc2cc(Br)c(O)c(Br)c2)c1	0.04	4%
Oc1c(Br)cc(/C=C/c2c(Br)cccc2Br)cc1Br	0.35	35%
Cc1cc(-c2cccc3oc4ccccc4c23)cc(C)c1O	0	0%
Oc1c(Br)cc(Oc2cccc3oc4ccccc4c23)cc1Br	0.94	94%
Oc1c(I)cc(-c2nc3cccc(Cl)c3o2)cc1I	0.92	92%
COc1ccccc1/C=C/c1cc(Br)c(O)c(Br)c1	0.32	32%
Oc1c(Br)cc(/C=C/c2ccccc2Br)cc1Br	0.69	69%
COc1cccc(CCc2cc(Br)c(O)c(Br)c2)c1	0.05	5%
Cc1cccc(/C=C/c2cc(Br)c(O)c(Br)c2)c1	0.35	35%
O=C(O)c1ccc2nc(-c3cc(Cl)cc(Cl)c3)oc2c1	0	0%
Brc1cc(Br)cc(-c2cccc3oc4ccccc4c23)c1	0	0%
Oc1c(Br)cc(CCc2c(F)cccc2F)cc1Br	0.61	61%
Cc1cc(C)cc(Nc2cccc3oc4ccccc4c23)c1	0	0%
Oc1c(Br)cc(/C=C/c2c(Cl)cccc2Cl)cc1Br	0.7	70%
Oc1c(Br)cc(/C=C/c2ccccc2C(F)(F)F)cc1Br	0.69	69%
Oc1c(Br)cc(/C=C/c2cccc(I)c2)cc1Br	0.45	45%
Oc1c(Br)cc(CCc2ccccc2C(F)(F)F)cc1Br	0.08	8%

Compound	relative binding affinity (RBA) [1]	inhibition [2]
Nc1ccc(/C=C/c2cc(Br)c(O)c(Br)c2)cc1	0	0%
O=[N+]([O-])c1ccccc1S(=O)(=O)Nc1cc(Cl)c(O)c(Cl)c1	0.07	7%
Cc1cc(-c2nc3c([N+](=O)[O-])cccc3o2)cc(C)c1O	0.16	16%
Nc1ccc(/C=C/c2cc(Br)c(N)c(Br)c2)cc1	0	0%
COc1ccccc1C(=O)Nc1cc(Br)cc(Br)c1	0.1	10%
Oc1c(Br)cc(/C=C/c2ccc(F)cc2)cc1Br	0.4	40%
Oc1c(Br)cc(CCc2c(Cl)cccc2Cl)cc1Br	0.45	45%
Oc1c(Br)cc(/C=C/c2ccccc2I)cc1Br	0.55	55%
Cc1cc(Oc2cccc3oc4ccccc4c23)cc(C)c1O	0	0%
Cc1cc(-c2cc(C)c(O)c(C)c2)cc(C)c1O	0.11	11%
COc1ccc(/C=C/c2cc(Br)c(O)c(Br)c2)cc1	0.16	16%
Oc1cccc(/C=C/c2cc(Br)c(O)c(Br)c2)c1	0.64	64%
Oc1ccccc1/C=C/c1cc(Br)c(O)c(Br)c1	0.22	22%
COc1cccc(OC)c1/C=C/c1cc(Br)c(N)c(Br)c1	0.02	2%
Cc1cccc(C)c1CCc1cc(Br)c(O)c(Br)c1	0.12	12%
O=[N+]([O-])c1ccccc1CCc1cc(Br)c(O)c(Br)c1	0.03	3%
Clc1cccc(Cl)c1/C=C/c1cc(Br)cc(Br)c1	0.13	13%
O=C(O)c1ccc(C(=O)Nc2cc(Br)cc(Br)c2)cc1	0.13	13%
COc1cccc(OC)c1/C=C/c1cc(Br)c(O)c(Br)c1	0	0%
Oc1c(I)cc(/C=C/c2c(Cl)cccc2Cl)cc1I	0.92	92%
